In patent US9283222B2 (priority 2006, dated 2016):

The compounds below were run against Recombinant Human Poly(ADP-Ribose) Polymerase (PARP), PARP-1 (Homo sapiens (Human), UniProt P09874). Conditions: read-out: PARP-1 (Ki).
Chain of Recombinant Human Poly(ADP-Ribose) Polymerase (PARP), PARP-1 (P09874 whole entry): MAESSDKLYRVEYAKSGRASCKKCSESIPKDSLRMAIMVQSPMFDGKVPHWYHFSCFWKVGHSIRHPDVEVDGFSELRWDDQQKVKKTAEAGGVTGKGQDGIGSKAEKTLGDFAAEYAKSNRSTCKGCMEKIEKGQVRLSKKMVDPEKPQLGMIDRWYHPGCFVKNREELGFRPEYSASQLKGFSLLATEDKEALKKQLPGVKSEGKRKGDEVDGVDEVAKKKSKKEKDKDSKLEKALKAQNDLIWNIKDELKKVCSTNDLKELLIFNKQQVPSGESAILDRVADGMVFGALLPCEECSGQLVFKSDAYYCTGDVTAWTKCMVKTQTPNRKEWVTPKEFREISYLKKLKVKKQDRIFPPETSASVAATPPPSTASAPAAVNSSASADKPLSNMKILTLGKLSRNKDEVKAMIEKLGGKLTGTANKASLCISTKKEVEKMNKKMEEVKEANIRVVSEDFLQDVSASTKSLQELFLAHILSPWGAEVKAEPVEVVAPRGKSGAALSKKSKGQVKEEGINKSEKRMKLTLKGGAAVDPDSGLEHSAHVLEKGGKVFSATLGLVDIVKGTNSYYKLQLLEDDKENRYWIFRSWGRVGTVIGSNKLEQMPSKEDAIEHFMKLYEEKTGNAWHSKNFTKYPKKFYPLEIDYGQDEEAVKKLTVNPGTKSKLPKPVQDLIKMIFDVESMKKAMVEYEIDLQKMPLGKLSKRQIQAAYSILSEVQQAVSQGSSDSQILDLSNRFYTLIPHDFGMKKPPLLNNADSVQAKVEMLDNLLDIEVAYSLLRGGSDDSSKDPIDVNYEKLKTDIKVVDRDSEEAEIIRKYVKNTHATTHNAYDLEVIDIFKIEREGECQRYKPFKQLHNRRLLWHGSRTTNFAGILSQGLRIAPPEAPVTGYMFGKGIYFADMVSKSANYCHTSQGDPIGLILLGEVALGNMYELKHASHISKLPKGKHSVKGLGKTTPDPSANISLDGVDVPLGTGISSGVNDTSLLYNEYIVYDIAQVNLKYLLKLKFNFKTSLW
In the case of O=C(OCc1ccccc1)N1CCN(C(=O)c2cc(Cc3n[nH]c(=O)c4c3CCCC4)ccc2F)CC1 [Example 543, benzyl 4-{2-fluoro-5-[(4-oxo-3,4,5,6,7,8-hexahydrophthalazin-1-yl)methyl]benzoyl}piperazine-1-carboxylate], the Ki is reported as 5 nM.

Same assay, conditions: read-out: PARP-1 (Ki); Table 1; text calls the values EC50s
NC(=O)C1CCN(C(=O)c2cc(Cc3n[nH]c(=O)c4c3NCCC4)ccc2F)CC1 [Example 534, 1-{2-fluoro-5-[(5-oxo-1,2,3,4,5,6-hexahydropyrido[2,3-d]pyridazin-8-yl)methyl]benzoyl}piperidine-4-carboxamide] showed a Ki of 2 nM.
O=C(c1cc(Cc2n[nH]c(=O)c3c2NCCC3)ccc1F)N1CCN(CCO)CC1 [Example 535, 8-(4-fluoro-3-{[4-(2-hydroxyethyl)piperazin-1-yl]carbonyl}benzyl)-2,3,4,6-tetrahydropyrido[2,3-d]pyridazin-5(1H)-one] showed a Ki of 4 nM.
In the case of O=C(CN1CCN(C(=O)c2cc(Cc3n[nH]c(=O)c4c3CCCC4)ccc2F)CC1)N1CCCC1 [Example 537, 4-(4-fluoro-3-{[4-(2-oxo-2-pyrrolidin-1-ylethyl)piperazin-1-yl]carbonyl}benzyl)-5,6,7,8-tetrahydrophthalazin-1(2H)-one], the Ki is reported as 2.5 nM.
CC(C)NC(=O)Nc1cc(Cc2n[nH]c(=O)c3c2CCCC3)ccc1F [Example 538, N-{2-fluoro-5-[(4-oxo-3,4,5,6,7,8-hexahydrophthalazin-1-yl)methyl]phenyl}-N′-isopropylurea] gave a Ki of 374 nM.
Work on CCCNC(=O)Nc1cc(Cc2n[nH]c(=O)c3c2CCCC3)ccc1F [Example 539, N-{2-fluoro-5-[(4-oxo-3,4,5,6,7,8-hexahydrophthalazin-1-yl)methyl]phenyl}-N′-propylurea] yielded a Ki of 191 nM.
Work on O=C(Nc1cc(Cc2n[nH]c(=O)c3c2CCCC3)ccc1F)NC1CCCC1 [Example 540, N-cyclopentyl-N′-{2-fluoro-5-[(4-oxo-3,4,5,6,7,8-hexahydrophthalazin-1-yl)methyl]phenyl}urea] yielded a Ki of 204 nM.
Compound O=C(Nc1ccc(F)cc1F)Nc1cc(Cc2n[nH]c(=O)c3c2CCCC3)ccc1F [Example 541, N-(2,4-difluorophenyl)-N′-{2-fluoro-5-[(4-oxo-3,4,5,6,7,8-hexahydrophthalazin-1-yl)methyl]phenyl}urea] has a Ki of 71 nM.
For CC(C)(C)NC(=O)Nc1cc(Cc2n[nH]c(=O)c3c2CCCC3)ccc1F [Example 542, N-(tert-butyl)-N′-{2-fluoro-5-[(4-oxo-3,4,5,6,7,8-hexahydrophthalazin-1-yl)methyl]phenyl}urea], the Ki was 548 nM.
Work on O=C(OCc1ccccc1)N1CCCN(C(=O)c2cc(Cc3n[nH]c(=O)c4c3CCCC4)ccc2F)CC1 [Example 544, benzyl 4-{2-fluoro-5-[(4-oxo-3,4,5,6,7,8-hexahydrophthalazin-1-yl)methyl]benzoyl}-1,4-diazepane-1-carboxylate] yielded a Ki of 4 nM.
O=C(c1cc(Cc2n[nH]c(=O)c3c2NCCC3)ccc1F)N1CCN(c2cccc(F)c2)CC1 [Example 547, 8-(4-fluoro-3-{[4-(3-fluorophenyl)piperazin-1-yl]carbonyl}benzyl)-2,3,4,6-tetrahydropyrido[2,3-d]pyridazin-5(1H)-one] was tested, and the Ki was 2.3 nM.
With O=C(c1cc(Cc2n[nH]c(=O)c3c2NCCC3)ccc1F)N1CCN(c2ccc(F)cc2)CC1 [Example 548, 8-(4-fluoro-3-{[4-(4-fluorophenyl)piperazin-1-yl]carbonyl}benzyl)-2,3,4,6-tetrahydropyrido[2,3-d]pyridazin-5(1H)-one] the Ki was 2 nM.
In the case of O=C(c1cc(Cc2n[nH]c(=O)c3c2NCCC3)ccc1F)N1CCN(c2ccccc2F)CC1 [Example 549, 8-(4-fluoro-3-{[4-(2-fluorophenyl)piperazin-1-yl]carbonyl}benzyl)-2,3,4,6-tetrahydropyrido[2,3-d]pyridazin-5(1H)-one], the Ki is reported as 1 nM.
In the case of O=C(c1ccco1)N1CCN(C(=O)c2cc(Cc3n[nH]c(=O)c4c3NCCC4)ccc2F)CC1 [Example 553, 8-(4-fluoro-3-{[4-(2-furoyl)piperazin-1-yl]carbonyl}benzyl)-2,3,4,6-tetrahydropyrido[2,3-d]pyridazin-5(1H)-one], the Ki is reported as 0.8 nM.
O=C(c1cc(Cc2n[nH]c(=O)c3c2NCCC3)ccc1F)N1CCN(c2ccccc2Cl)CC1 [Example 554, 8-(3-{[4-(2-chlorophenyl)piperazin-1-yl]carbonyl}-4-fluorobenzyl)-2,3,4,6-tetrahydropyrido[2,3-d]pyridazin-5(1H)-one] gave a Ki of 2.1 nM.
Compound CCN(CC)C(=O)N1CCN(C(=O)c2cc(Cc3n[nH]c(=O)c4c3NCCC4)ccc2F)CC1 [Example 557, N,N-diethyl-4-{2-fluoro-5-[(5-oxo-1,2,3,4,5,6-hexahydropyrido[2,3-d]pyridazin-8-yl)methyl]benzoyl}piperazine-1-carboxamide] has a Ki of 1.1 nM.
CN(C)C(=O)CN1CCN(C(=O)c2cc(Cc3n[nH]c(=O)c4c3NCCC4)ccc2F)CC1 [Example 560, 2-(4-{2-fluoro-5-[(5-oxo-1,2,3,4,5,6-hexahydropyrido[2,3-d]pyridazin-8-yl)methyl]benzoyl}piperazin-1-yl)-N,N-dimethylacetamide] showed a Ki of 2 nM.
For O=C(c1cc(Cc2n[nH]c(=O)c3c2NCCC3)ccc1F)N1CCN(CCOc2ccccc2)CC1 [Example 561, 8-(4-fluoro-3-{[4-(2-phenoxyethyl)piperazin-1-yl]carbonyl}benzyl)-2,3,4,6-tetrahydropyrido[2,3-d]pyridazin-5(1H)-one], the Ki was 3 nM.
O=C(c1cc(Cc2n[nH]c(=O)c3c2NCCC3)ccc1F)N1CCN(S(=O)(=O)c2ccccc2)CC1 [Example 562, 8-(4-fluoro-3-{[4-(phenylsulfonyl)piperazin-1-yl]carbonyl}benzyl)-2,3,4,6-tetrahydropyrido[2,3-d]pyridazin-5(1H)-one] was tested, and the Ki was 0.9 nM.
With CC(C)C(=O)N1CCN(C(=O)c2cc(Cc3n[nH]c(=O)c4c3NCCC4)ccc2F)CC1 [Example 565, 8-{4-fluoro-3-[(4-isobutyrylpiperazin-1-yl)carbonyl]benzyl}-2,3,4,6-tetrahydropyrido[2,3-d]pyridazin-5(1H)-one] the Ki was 1.4 nM.
O=C(c1cc(Cc2n[nH]c(=O)c3c2NCCC3)ccc1F)N1CCN(CCN2CCOCC2)CC1 [Example 566, 8-(4-fluoro-3-{[4-(2-morpholin-4-ylethyl)piperazin-1-yl]carbonyl}benzyl)-2,3,4,6-tetrahydropyrido[2,3-d]pyridazin-5(1H)-one] showed a Ki of 4 nM.
In the case of O=C(c1cc(Cc2n[nH]c(=O)c3c2NCCC3)ccc1F)N1CCN(C(=O)C2CCCCC2)CC1 [Example 568, 8-(3-{[4-(cyclohexylcarbonyl)piperazin-1-yl]carbonyl}-4-fluorobenzyl)-2,3,4,6-tetrahydropyrido[2,3-d]pyridazin-5(1H)-one], the Ki is reported as 1.1 nM.
O=C(c1cc(Cc2n[nH]c(=O)c3c2NCCC3)ccc1F)N1CCN(C(=O)C2CCCO2)CC1 (stereo not shown) [Example 569, 8-(4-fluoro-3-{[4-(tetrahydrofuran-2-ylcarbonyl)piperazin-1-yl]carbonyl}benzyl)-2,3,4,6-tetrahydropyrido[2,3-d]pyridazin-5(1H)-one] was tested, and the Ki was 1.2 nM.
In the case of O=C(c1cc(Cc2n[nH]c(=O)c3c2NCCC3)ccc1F)N1CCN(CCN2CCCCC2)CC1 [Example 570, 8-(4-fluoro-3-{[4-(2-piperidin-1-ylethyl)piperazin-1-yl]carbonyl}benzyl)-2,3,4,6-tetrahydropyrido[2,3-d]pyridazin-5(1H)-one], the Ki is reported as 8 nM.
O=C(c1cc(Cc2n[nH]c(=O)c3c2CCCC3)ccc1F)N1CCN(CCN2CCOCC2)CC1 [Example 571, 4-(4-fluoro-3-{[4-(2-morpholin-4-ylethyl)piperazin-1-yl]carbonyl}benzyl)-5,6,7,8-tetrahydrophthalazin-1(2H)-one] gave a Ki of 4 nM.
O=C(c1cc(Cc2n[nH]c(=O)c3c2NCCC3)ccc1F)N1CCC(O)CC1 [Example 572, 8-{4-fluoro-3-[(4-hydroxypiperidin-1-yl)carbonyl]benzyl}-2,3,4,6-tetrahydropyrido[2,3-d]pyridazin-5(1H)-one] showed a Ki of 3 nM.
Cc1cncc(N2CCN(C(=O)c3cc(Cc4n[nH]c(=O)c5c4NCCC5)ccc3F)CC2)n1 [Example 573, 8-(4-fluoro-3-{[4-(6-methylpyrazin-2-yl)piperazin-1-yl]carbonyl}benzyl)-2,3,4,6-tetrahydropyrido[2,3-d]pyridazin-5(1H)-one] gave a Ki of 0.9 nM.
For O=C(c1cc(Cc2n[nH]c(=O)c3c2CCCC3)ccc1F)N1CCN(S(=O)(=O)c2ccccc2)CC1 [Example 574, 4-(4-fluoro-3-{[4-(phenylsulfonyl)piperazin-1-yl]carbonyl}benzyl)-5,6,7,8-tetrahydrophthalazin-1(2H)-one], the Ki was 1.3 nM.
O=C(c1cc(Cc2n[nH]c(=O)c3c2CCCC3)ccc1F)N1CCN(C2CCCC2)CC1 [Example 575, 4-{3-[(4-cyclopentylpiperazin-1-yl)carbonyl]-4-fluorobenzyl}-5,6,7,8-tetrahydrophthalazin-1(2H)-one] gave a Ki of 2 nM.
Compound O=C(c1cc(Cc2n[nH]c(=O)c3c2CCCC3)ccc1F)N1CCN(C(=O)N2CCCC2)CC1 [Example 576, 4-(4-fluoro-3-{[4-(pyrrolidine-1-ylcarbonyl)piperazin-1-yl]carbonyl}benzyl)-5,6,7,8-tetrahydrophthalazin-1(2H)-one] has a Ki of 0.9 nM.
In the case of O=C(c1cc(Cc2n[nH]c(=O)c3c2CCCC3)ccc1F)N1CCN(CCOc2ccccc2)CC1 [Example 577, 4-(4-fluoro-3-{[4-(2-phenoxyethyl)piperazin-1-yl]carbonyl}benzyl)-5,6,7,8-tetrahydrophthalazin-1(2H)-one], the Ki is reported as 3 nM.
For CN1CCN(CCNC(=O)c2cc(Cc3n[nH]c(=O)c4c3CCCC4)ccc2F)CC1 [Example 578, 2-fluoro-N-[2-(4-methylpiperazin-1-yl)ethyl]-5-[(4-oxo-3,4,5,6,7,8-hexahydrophthalazin-1-yl)methyl]benzamide], the Ki was 1.1 nM.
In the case of CC(C)C(=O)N1CCN(C(=O)c2cc(Cc3n[nH]c(=O)c4c3CCCC4)ccc2F)CC1 [Example 579, 4-{4-fluoro-3-[(4-isobutyrylpiperazin-1-yl)carbonyl]benzyl}-5,6,7,8-tetrahydrophthalazin-1(2H)-one], the Ki is reported as 1 nM.
In the case of CCN1CCN(C(=O)c2cc(Cc3n[nH]c(=O)c4c3CCCC4)ccc2F)CC1 [Example 580, 4-{3-[(4-ethylpiperazin-1-yl)carbonyl]-4-fluorobenzyl}-5,6,7,8-tetrahydrophthalazin-1(2H)-one], the Ki is reported as 1.8 nM.
